Measured values: ChEMBL document CHEMBL1201862, “PubChem BioAssay data set” (2004)
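Protocol summary: plate cells (96-well), add compound at 5 concentrations, incubate 48 h, interpolate endpoints linearly. Abbreviation: GI50, concentration required for 50% inhibition of growth.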 Calls of active or inactive are those of the source. No stated cut-off is given here; in the data, active = GI50 up to about 1.1 µM and inactive = higher.

Key:
Experiment in all cases: NCI tumour cell line growth inhibition, 48 h
[1] = system: PC-3
[2] = system: NCI-H23
[3] = system: SK-MEL-2
[4] = system: SW-620
[5] = system: UACC-62
[6] = system: RXF 393
[7] = system: U-251
[8] = system: OVCAR-4
[9] = system: KM12
[10] = system: UACC-257
[11] = system: HT-29
[12] = system: SF-295
[13] = system: MDA-MB-435
[14] = system: HCT-116
[15] = system: ACHN
[16] = system: SK-OV-3
[17] = system: Malme-3M
[18] = system: OVCAR-8
[19] = system: HCC 2998
[20] = system: HOP-92

| Structure (SMILES) | GI50 [1] | GI50 [2] | GI50 [3] | GI50 [4] | GI50 [5] | GI50 [6] | GI50 [7] | GI50 [8] | GI50 [9] | GI50 [10] | GI50 [11] | GI50 [12] | GI50 [13] | GI50 [14] | GI50 [15] | GI50 [16] | GI50 [17] | GI50 [18] | GI50 [19] | GI50 [20] |
| --- | --- | --- | --- | --- | --- | --- | --- | --- | --- | --- | --- | --- | --- | --- | --- | --- | --- | --- | --- | --- |
| O=C(O)C(Cc1ccccc1)Cc1ccccc1 | > 100 µM (inactive) | > 100 µM (inactive) | > 100 µM (inactive) | > 100 µM (inactive) | > 100 µM (inactive) | > 100 µM (inactive) | > 100 µM (inactive) | > 100 µM (inactive) | > 100 µM (inactive) | > 100 µM (inactive) | > 100 µM (inactive) | > 100 µM (inactive) | > 100 µM (inactive) | > 100 µM (inactive) | > 100 µM (inactive) | > 100 µM (inactive) | > 100 µM (inactive) | > 100 µM (inactive) |  |  |
| Nc1nc2cc(Cl)ccc2n1N | > 100 µM (inactive) | > 100 µM (inactive) |  | > 100 µM (inactive) | 86.9 µM (inactive) | 67 µM (inactive) | > 100 µM (inactive) |  | > 100 µM (inactive) | > 100 µM (inactive) | > 100 µM (inactive) | > 100 µM (inactive) | > 100 µM (inactive) | > 100 µM (inactive) | > 100 µM (inactive) | 33.8 µM (inactive) | > 100 µM (inactive) | > 100 µM (inactive) | > 100 µM (inactive) |  |
| CN(Cc1ccccc1)c1cc(=O)n(C)c(=O)[nH]1 | > 100 µM (inactive) | > 100 µM (inactive) | > 100 µM (inactive) | > 100 µM (inactive) | > 100 µM (inactive) |  | > 100 µM (inactive) | > 100 µM (inactive) |  | > 100 µM (inactive) | > 100 µM (inactive) | > 100 µM (inactive) | > 100 µM (inactive) | > 100 µM (inactive) | > 100 µM (inactive) | > 100 µM (inactive) | > 100 µM (inactive) | > 100 µM (inactive) | > 100 µM (inactive) | > 100 µM (inactive) |
| O=C1/C(=C/c2ccco2)NC(=S)N1CN1CCOCC1 | > 100 µM (inactive) | > 100 µM (inactive) | > 100 µM (inactive) | > 100 µM (inactive) | > 100 µM (inactive) |  | > 100 µM (inactive) | > 100 µM (inactive) | > 100 µM (inactive) | > 100 µM (inactive) | > 100 µM (inactive) | > 100 µM (inactive) | > 100 µM (inactive) | > 100 µM (inactive) | > 100 µM (inactive) | > 100 µM (inactive) |  | > 100 µM (inactive) |  | > 100 µM (inactive) |
| CCN(CC)CCO/N=C1\CC[C@H]2[C@@H]3CC=C4C[C@@H](O)CC[C@]4(C)[C@H]3CC[C@]12C | 19 µM (inactive) | 16.2 µM (inactive) | 23.3 µM (inactive) | 15.1 µM (inactive) | 16.9 µM (inactive) | 17.5 µM (inactive) | 14.4 µM (inactive) | 25.5 µM (inactive) | 17.8 µM (inactive) | 16.7 µM (inactive) | 3.67 µM (inactive) | 19.5 µM (inactive) | 17.3 µM (inactive) | 15.6 µM (inactive) | 35.8 µM (inactive) |  | 16.1 µM (inactive) | 21.5 µM (inactive) | 16.9 µM (inactive) |  |
| CCCCCCCCCCCCCCCCCCNC(=S)N/C=C1/C(=O)C=C(C)OC1=O | 17 µM (inactive) | 22.8 µM (inactive) | 21.4 µM (inactive) | 27.4 µM (inactive) | 30.2 µM (inactive) |  | 31.3 µM (inactive) | 23.7 µM (inactive) | 16.6 µM (inactive) | 27.5 µM (inactive) | 20.8 µM (inactive) | 23.8 µM (inactive) | 23.7 µM (inactive) | 30.1 µM (inactive) | 22.9 µM (inactive) | 58.2 µM (inactive) |  | 23.8 µM (inactive) | 9.53 µM (inactive) | 27.3 µM (inactive) |
| O=C(OC(=C(c1ccccc1)c1ccccc1)N1CCCC1=S)C(c1ccccc1)c1ccccc1 | 3.24 µM (inactive) | 4.23 µM (inactive) | > 10 µM (inactive) | > 10 µM (inactive) | > 10 µM (inactive) | > 10 µM (inactive) | 6.32 µM (inactive) | 8.83 µM (inactive) | 4.5 µM (inactive) | > 10 µM (inactive) | 4.42 µM (inactive) | > 10 µM (inactive) | > 10 µM (inactive) | 4.12 µM (inactive) | 5.07 µM (inactive) | 9.18 µM (inactive) | > 10 µM (inactive) | 7.96 µM (inactive) | 9.44 µM (inactive) |  |
| O=S(=O)(F)Cc1ccccc1 [PHENYLMETHYLSULFONYLFLUORIDE] | > 100 µM (inactive) | > 100 µM (inactive) | > 100 µM (inactive) | > 100 µM (inactive) | > 100 µM (inactive) |  | > 100 µM (inactive) | > 100 µM (inactive) | > 100 µM (inactive) | > 100 µM (inactive) | > 100 µM (inactive) | > 100 µM (inactive) | > 100 µM (inactive) | > 100 µM (inactive) | > 100 µM (inactive) | > 100 µM (inactive) | 0.486 µM (active) | > 100 µM (inactive) | > 100 µM (inactive) | > 100 µM (inactive) |
| CN(C(=O)Cc1cc(Cl)c(Cl)cc1NC(=O)CCCN)[C@H]1CCCC[C@@H]1N1CCCC1 | 40.3 µM (inactive) | > 100 µM (inactive) | 21.9 µM (inactive) | 28.6 µM (inactive) | 19.8 µM (inactive) | 16.1 µM (inactive) | 19.3 µM (inactive) | 86.3 µM (inactive) | 18.7 µM (inactive) | 19.1 µM (inactive) | 20.5 µM (inactive) | 58.2 µM (inactive) | 16.4 µM (inactive) | 29.9 µM (inactive) | > 100 µM (inactive) | 95.5 µM (inactive) | 17.1 µM (inactive) | > 100 µM (inactive) | 16.6 µM (inactive) |  |
| COC1=C(Br)[C@H](O)[C@@]2(C=C1Br)CC(C(=O)NCCCOc1c(Br)cc(C(O)CNC(C)=O)cc1Br)=NO2 (some centres not stated) [APLYSINAMISINE III] | > 10 µM (inactive) | > 10 µM (inactive) | 8.79 µM (inactive) | > 10 µM (inactive) | > 10 µM (inactive) | > 10 µM (inactive) | > 10 µM (inactive) | > 10 µM (inactive) | > 10 µM (inactive) | > 10 µM (inactive) | > 10 µM (inactive) | > 10 µM (inactive) | 2.18 µM (inactive) | > 10 µM (inactive) | > 10 µM (inactive) | > 10 µM (inactive) | 6.03 µM (inactive) | > 10 µM (inactive) | > 10 µM (inactive) |  |
| O=C(O)c1cccc(CN2CCCCC2)c1 | > 100 µM (inactive) | > 100 µM (inactive) | > 100 µM (inactive) | > 100 µM (inactive) | > 100 µM (inactive) | > 100 µM (inactive) | > 100 µM (inactive) | > 100 µM (inactive) | > 100 µM (inactive) | > 100 µM (inactive) | > 100 µM (inactive) | > 100 µM (inactive) | > 100 µM (inactive) | > 100 µM (inactive) | > 100 µM (inactive) | > 100 µM (inactive) | > 100 µM (inactive) | > 100 µM (inactive) | > 100 µM (inactive) |  |
| CSC1NC(c2ccc(Cl)cc2)=C(C#N)C(=O)N1C1OCC(OC(C)=O)C(OC(C)=O)C1OC(C)=O (configuration not stated) | > 100 µM (inactive) | > 100 µM (inactive) |  | > 100 µM (inactive) | > 100 µM (inactive) |  | > 100 µM (inactive) | > 100 µM (inactive) | > 100 µM (inactive) | > 100 µM (inactive) | > 100 µM (inactive) | > 100 µM (inactive) | > 100 µM (inactive) |  | > 100 µM (inactive) | > 100 µM (inactive) | > 100 µM (inactive) | > 100 µM (inactive) | > 100 µM (inactive) | > 100 µM (inactive) |
| CC1C(c2ccc(Cl)cc2)c2cc3c(cc2OC1N1CCOCC1)OCO3 (configuration not stated) | 67.3 µM (inactive) | > 100 µM (inactive) | 69.7 µM (inactive) | > 100 µM (inactive) | 74 µM (inactive) |  |  |  | > 100 µM (inactive) | 86.1 µM (inactive) | 49.5 µM (inactive) | 31.8 µM (inactive) | 95.1 µM (inactive) | 95.1 µM (inactive) | 35.3 µM (inactive) |  |  | > 100 µM (inactive) | > 100 µM (inactive) |  |
| COc1cc(C2C(C#N)=C(N)OC3=C2CCS(=O)(=O)c2ccc(C)cc23)cc(OC)c1OC (configuration not stated) | > 100 µM (inactive) | > 100 µM (inactive) | > 100 µM (inactive) | > 100 µM (inactive) | > 100 µM (inactive) |  | > 100 µM (inactive) | > 100 µM (inactive) | > 100 µM (inactive) | > 100 µM (inactive) | > 100 µM (inactive) |  | > 100 µM (inactive) | > 100 µM (inactive) | > 100 µM (inactive) |  | > 100 µM (inactive) | > 100 µM (inactive) | > 100 µM (inactive) | > 100 µM (inactive) |
| CNn1c(C)n[nH]c1=O | > 100 µM (inactive) | > 100 µM (inactive) | > 100 µM (inactive) | > 100 µM (inactive) | > 100 µM (inactive) |  | > 100 µM (inactive) | > 100 µM (inactive) | > 100 µM (inactive) | > 100 µM (inactive) |  | > 100 µM (inactive) | > 100 µM (inactive) | > 100 µM (inactive) | > 100 µM (inactive) | > 100 µM (inactive) | 96.8 µM (inactive) | > 100 µM (inactive) | > 100 µM (inactive) | > 100 µM (inactive) |
